Experimental data as given in ChEMBL document CHEMBL3867446, “Sulfoureido Lipopeptides from the Marine Sponge Discodermia kiiensis” (J Nat Prod, 2016).

Assay: Cytotoxicity against mouse P388 cells after 3 days by MTT assay
Assay type: functional, cell-based
Conditions: P388, 72 h

With `CC/C=C1/NC(=O)/C=C/[C@H](C(C)C)OC(=O)C(C)(C)[C@H](C[C@H](/C=C/C=C/C/C=C\CCCC)OC)OC(=O)CNC(=O)[C@H](CNC(N)=O)NC(=O)CNC(=O)[C@@H](CCCNC(=O)NS(=O)(=O)O)NC1=O` as the compound, how does the IC50 read?
The IC50 was 30 µM.

For `CC/C=C1/NC(=O)/C=C/[C@H]([C@@H](C)CC)OC(=O)C(C)(C)[C@H](C[C@H](/C=C/C=C/C/C=C\CCC(C)C)OC)OC(=O)CNC(=O)[C@H](CNC(N)=O)NC(=O)CNC(=O)[C@@H](CCCNC(=O)NS(=O)(=O)O)NC1=O`, which IC50 is on record?
The IC50 was 29 µM.

For `CC/C=C1/NC(=O)/C=C/[C@H](C(C)C)OC(=O)C(C)(C)[C@H](C[C@H](/C=C/C=C/C/C=C\CCC(C)C)OC)OC(=O)CNC(=O)[C@H](CNC(N)=O)NC(=O)CNC(=O)[C@@H](CCCNC(=O)NS(=O)(=O)O)NC1=O`, which IC50 is on record?
Its IC50 is 15 µM.

With `CC/C=C1/NC(=O)/C=C/[C@H](C(C)C)OC(=O)C(C)(C)[C@H](C[C@H](/C=C/C=C/C/C=C\CCC(C)C)OC)OC(=O)CNC(=O)[C@H](CNC(N)=O)NC(=O)CNC(=O)[C@@H](CCCNC(N)=O)NC1=O` as the compound, how does the IC50 read?
Its IC50 is 36 µM.
